# Measurements as given in PubChem BioAssay (NCI).
#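 Interpolation was linear, between the two tested concentrations surrounding the appropriate level; five concentrations were tested over 48 hours in 96-well plates. Here, GI50 denotes the concentration required for 50% inhibition of growth. TGI is the concentration that stops growth completely.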
# Columns and labels:
# Assay in all cases: NCI tumour cell line growth inhibition, 48 h
# 786-0 renal = system: 786-0 renal
# A498 renal = system: A498 renal
# A549 NSCLC = system: A549 NSCLC
# ACHN renal = system: ACHN renal
# BT-549 breast = system: BT-549 breast
# CAKI-1 renal = system: CAKI-1 renal
# CCRF-CEM leukemia = system: CCRF-CEM leukemia
# COLO 205 colon = system: COLO 205 colon
# DU-145 prostate = system: DU-145 prostate
# EKVX NSCLC = system: EKVX NSCLC
# HCC-2998 colon = system: HCC-2998 colon
# HCT-116 colon = system: HCT-116 colon
# HCT-15 colon = system: HCT-15 colon
# HL-60(TB) leukemia = system: HL-60(TB) leukemia
# HOP-62 NSCLC = system: HOP-62 NSCLC
# HOP-92 NSCLC = system: HOP-92 NSCLC
# HS 578T breast = system: HS 578T breast
# HT29 colon = system: HT29 colon
# IGROV1 ovarian = system: IGROV1 ovarian
# K-562 leukemia = system: K-562 leukemia
# KM12 colon = system: KM12 colon
# LOX IMVI melanoma = system: LOX IMVI melanoma
# M14 melanoma = system: M14 melanoma
# MALME-3M melanoma = system: MALME-3M melanoma
# MCF7 breast = system: MCF7 breast
# MDA-MB-231 breast = system: MDA-MB-231 breast
# MDA-MB-435 = system: MDA-MB-435
# MDA-MB-468 breast = system: MDA-MB-468 breast
# MOLT-4 leukemia = system: MOLT-4 leukemia
# NCI-H226 lung = system: NCI-H226 lung
smiles,measurement,setting,value
C/C(=C\CC/C=C(\C)CC/C=C(\C)CC[C@@H](O)C(C)(C)O)CC/C=C(\C)CC[C@@H](O)C(C)(C)O,GI50,786-0 renal,10.8 µM
same,TGI,786-0 renal,24.1 µM
same,GI50,A498 renal,12.6 µM
same,TGI,A498 renal,25.7 µM
same,GI50,A549 NSCLC,10 µM
same,TGI,A549 NSCLC,30.2 µM
same,GI50,ACHN renal,5.78 µM
same,TGI,ACHN renal,18.3 µM
same,GI50,BT-549 breast,5.14 µM
same,TGI,BT-549 breast,17.4 µM
same,GI50,CAKI-1 renal,12.3 µM
same,TGI,CAKI-1 renal,25.1 µM
same,GI50,CCRF-CEM leukemia,17.9 µM
same,TGI,CCRF-CEM leukemia,39.7 µM
same,GI50,COLO 205 colon,17.8 µM
same,TGI,COLO 205 colon,34.6 µM
same,GI50,DU-145 prostate,15.5 µM
same,TGI,DU-145 prostate,29 µM
same,GI50,EKVX NSCLC,7.68 µM
same,TGI,EKVX NSCLC,20.5 µM
same,GI50,HCC-2998 colon,13.5 µM
same,TGI,HCC-2998 colon,26.4 µM
same,GI50,HCT-116 colon,6.39 µM
same,TGI,HCT-116 colon,21.3 µM
same,GI50,HCT-15 colon,10.9 µM
same,TGI,HCT-15 colon,22.8 µM
same,GI50,HL-60(TB) leukemia,3.1 µM
same,TGI,HL-60(TB) leukemia,11.2 µM
same,GI50,HOP-62 NSCLC,17 µM
same,TGI,HOP-62 NSCLC,34.6 µM
same,GI50,HOP-92 NSCLC,10.2 µM
same,TGI,HOP-92 NSCLC,23.9 µM
same,GI50,HS 578T breast,10.3 µM
same,TGI,HS 578T breast,26.1 µM
same,GI50,HT29 colon,12 µM
same,TGI,HT29 colon,27.4 µM
same,GI50,IGROV1 ovarian,15.4 µM
same,TGI,IGROV1 ovarian,29.2 µM
same,GI50,K-562 leukemia,5.07 µM
same,TGI,K-562 leukemia,> 100 µM
same,GI50,KM12 colon,13.9 µM
same,TGI,KM12 colon,27.3 µM
same,GI50,LOX IMVI melanoma,13.4 µM
same,TGI,LOX IMVI melanoma,26.4 µM
same,GI50,M14 melanoma,10.4 µM
same,TGI,M14 melanoma,23.1 µM
same,GI50,MALME-3M melanoma,12 µM
same,TGI,MALME-3M melanoma,24.5 µM
same,GI50,MCF7 breast,6.7 µM
same,TGI,MCF7 breast,20 µM
same,GI50,MDA-MB-231 breast,13.6 µM
same,TGI,MDA-MB-231 breast,26.5 µM
same,GI50,MDA-MB-435,14.7 µM
same,TGI,MDA-MB-435,28 µM
same,GI50,MDA-MB-468 breast,7.97 µM
same,TGI,MDA-MB-468 breast,21.1 µM
same,GI50,MOLT-4 leukemia,14.4 µM
same,TGI,MOLT-4 leukemia,44.6 µM
same,GI50,NCI-H226 lung,12.6 µM
